In brackets after ≈: the same amount, converted by molar mass.

In one assay the test system is Aspergillus fumigatus. Briefly: Antifungal activity against Aspergillus fumigatus CGMCC 3.7795 assessed as inhibition of fungal growth by CLSI protocol based microdilution method. The class given is functional.
Conditions: not given
On the technique in general: Broth dilution looks for growth in wells or tubes with falling amounts of substance.
Turning to `O=C(/C=C/c1ccc(COC(Cn2ccnc2)c2ccc(Cl)cc2Cl)cc1)Nc1cccc(Cl)c1` (configuration not stated), the MIC (usually the lowest concentration found to suppress growth) was 16 µg/mL (≈ 30.4 µM).
In the case of `CCNC(=O)/C=C/c1ccc(COC(Cn2ccnc2)c2ccc(Cl)cc2Cl)cc1` (configuration not stated), the MIC is 8 µg/mL (≈ 18 µM).
On the same count and under the same terms, for `COc1ccc(NC(=O)/C=C/c2ccc(COC(Cn3ccnc3)c3ccc(Cl)cc3Cl)cc2)cc1` (configuration not stated) the value was 4 µg/mL (≈ 7.66 µM).
Same read-out and setting: for `CC(C)NC(=O)/C=C/c1ccc(COC(Cn2ccnc2)c2ccc(Cl)cc2Cl)cc1` (configuration not stated) the value was 2 µg/mL (≈ 4.36 µM).

A further assay relates to Candida albicans. Briefly: Antifungal activity against Candida albicans SC5314 assessed as inhibition of fungal growth by CLSI protocol based microdilution method. It is filed as functional.
Conditions: not given
Turning to `O=C(/C=C/c1ccc(COC(Cn2ccnc2)c2ccc(Cl)cc2Cl)cc1)Nc1cccc(Cl)c1` (configuration not stated), the minimal inhibitory concentration (MIC) was 0.06 µg/mL (≈ 0.114 µM).
The same measure, in the same setting: for `CCNC(=O)/C=C/c1ccc(COC(Cn2ccnc2)c2ccc(Cl)cc2Cl)cc1` (configuration not stated) the value was 1 µg/mL (≈ 2.25 µM); for `COc1ccc(NC(=O)/C=C/c2ccc(COC(Cn3ccnc3)c3ccc(Cl)cc3Cl)cc2)cc1` (configuration not stated), 0.06 µg/mL (≈ 0.115 µM).
On the same count and under the same terms, as for `CC(C)NC(=O)/C=C/c1ccc(COC(Cn2ccnc2)c2ccc(Cl)cc2Cl)cc1` (configuration not stated), the figure is 0.5 µg/mL (≈ 1.09 µM).

Another assay concerns Candida albicans. Briefly: Antifungal activity against Candida albicans CPCC400616 assessed as inhibition of fungal growth by CLSI protocol based microdilution method.
Conditions: not given
The class given is functional.
In the case of `O=C(/C=C/c1ccc(COC(Cn2ccnc2)c2ccc(Cl)cc2Cl)cc1)Nc1cccc(Cl)c1` (configuration not stated), the minimal inhibitory concentration (MIC) turned out to be 0.125 µg/mL (≈ 0.237 µM).
On to `CCNC(=O)/C=C/c1ccc(COC(Cn2ccnc2)c2ccc(Cl)cc2Cl)cc1` (configuration not stated), for which the MIC amounted to 0.5 µg/mL (≈ 1.13 µM).
Still for that read-out and setting: as for `COc1ccc(NC(=O)/C=C/c2ccc(COC(Cn3ccnc3)c3ccc(Cl)cc3Cl)cc2)cc1` (configuration not stated), the figure is 0.03 µg/mL (≈ 0.0574 µM); as for `CC(C)NC(=O)/C=C/c1ccc(COC(Cn2ccnc2)c2ccc(Cl)cc2Cl)cc1` (configuration not stated), 0.125 µg/mL (≈ 0.273 µM).

A further assay relates to Candida albicans. Briefly: Antifungal activity against fluconazole-resistant Candida albicans 901 assessed as inhibition of fungal growth by CLSI based microdilution method. It is filed as functional.
Conditions: not given
`O=C(/C=C/c1ccc(COC(Cn2ccnc2)c2ccc(Cl)cc2Cl)cc1)Nc1cccc(Cl)c1` (configuration not stated): the MIC turned out to be 4 µg/mL (≈ 7.59 µM).
As for `CCNC(=O)/C=C/c1ccc(COC(Cn2ccnc2)c2ccc(Cl)cc2Cl)cc1` (configuration not stated), the MIC worked out at 16 µg/mL (≈ 36 µM).
For the compound `COc1ccc(NC(=O)/C=C/c2ccc(COC(Cn3ccnc3)c3ccc(Cl)cc3Cl)cc2)cc1` (configuration not stated), the minimal inhibitory concentration (MIC) was 4 µg/mL (≈ 7.66 µM).
Regarding `CC(C)NC(=O)/C=C/c1ccc(COC(Cn2ccnc2)c2ccc(Cl)cc2Cl)cc1` (configuration not stated), the MIC came out at 4 µg/mL (≈ 8.73 µM).

Another assay has as its system Cryptococcus neoformans. Briefly: Antifungal activity against Cryptococcus neoformans CGMCC2.3161 assessed as inhibition of fungal growth by CLSI protocol based microdilution method.
Conditions: not given
The class given is functional.
As to `O=C(/C=C/c1ccc(COC(Cn2ccnc2)c2ccc(Cl)cc2Cl)cc1)Nc1cccc(Cl)c1` (configuration not stated), the MIC was 16 µg/mL (≈ 30.4 µM).
For the compound `CCNC(=O)/C=C/c1ccc(COC(Cn2ccnc2)c2ccc(Cl)cc2Cl)cc1` (configuration not stated), the MIC worked out at 8 µg/mL (≈ 18 µM).
On to `COc1ccc(NC(=O)/C=C/c2ccc(COC(Cn3ccnc3)c3ccc(Cl)cc3Cl)cc2)cc1` (configuration not stated), for which the MIC stood at 0.125 µg/mL (≈ 0.239 µM).
Still for that read-out and setting: as for `CC(C)NC(=O)/C=C/c1ccc(COC(Cn2ccnc2)c2ccc(Cl)cc2Cl)cc1` (configuration not stated), the figure is 8 µg/mL (≈ 17.5 µM).

For a further assay, the system named is Nakaseomyces glabratus. Briefly: Antifungal activity against Candida glabrata assessed as inhibition of fungal growth by CLSI protocol based microdilution method. It is filed as functional.
Conditions: not given
Regarding `O=C(/C=C/c1ccc(COC(Cn2ccnc2)c2ccc(Cl)cc2Cl)cc1)Nc1cccc(Cl)c1` (configuration not stated), the MIC was 64 µg/mL (≈ 121 µM).
As to `CCNC(=O)/C=C/c1ccc(COC(Cn2ccnc2)c2ccc(Cl)cc2Cl)cc1` (configuration not stated), the MIC is 16 µg/mL (≈ 36 µM).
Take `COc1ccc(NC(=O)/C=C/c2ccc(COC(Cn3ccnc3)c3ccc(Cl)cc3Cl)cc2)cc1` (configuration not stated): the minimum inhibitory concentration (MIC) is 4 µg/mL (≈ 7.66 µM).
For the compound `CC(C)NC(=O)/C=C/c1ccc(COC(Cn2ccnc2)c2ccc(Cl)cc2Cl)cc1` (configuration not stated), the MIC was 4 µg/mL (≈ 8.73 µM).

A further assay deals with Candida tropicalis. Briefly: Antifungal activity against Candida tropicalis CGMCC 2.3739 assessed as inhibition of fungal growth by CLSI protocol based microdilution method. It is filed as functional.
Conditions: not given
As for `O=C(/C=C/c1ccc(COC(Cn2ccnc2)c2ccc(Cl)cc2Cl)cc1)Nc1cccc(Cl)c1` (configuration not stated), the minimal inhibitory concentration (MIC) was 32 µg/mL (≈ 60.7 µM).
`CCNC(=O)/C=C/c1ccc(COC(Cn2ccnc2)c2ccc(Cl)cc2Cl)cc1` (configuration not stated): the minimal inhibitory concentration (MIC) stood at 4 µg/mL (≈ 9 µM).
In the case of `COc1ccc(NC(=O)/C=C/c2ccc(COC(Cn3ccnc3)c3ccc(Cl)cc3Cl)cc2)cc1` (configuration not stated), the MIC was 4 µg/mL (≈ 7.66 µM).
On the same count and under the same terms, as for `CC(C)NC(=O)/C=C/c1ccc(COC(Cn2ccnc2)c2ccc(Cl)cc2Cl)cc1` (configuration not stated), the figure is 4 µg/mL (≈ 8.73 µM).

A further assay deals with Candida parapsilosis. Briefly: Antifungal activity against Candida parapsilosis ATCC 22019 assessed as inhibition of fungal growth by CLSI protocol based microdilution method. It is filed as functional. Particulars: Lodderomyces parapsilosis.
Regarding `O=C(/C=C/c1ccc(COC(Cn2ccnc2)c2ccc(Cl)cc2Cl)cc1)Nc1cccc(Cl)c1` (configuration not stated), the MIC is 0.125 µg/mL (≈ 0.237 µM).
In the case of `CCNC(=O)/C=C/c1ccc(COC(Cn2ccnc2)c2ccc(Cl)cc2Cl)cc1` (configuration not stated), the minimum inhibitory concentration (MIC) turned out to be 8 µg/mL (≈ 18 µM).
For the compound `COc1ccc(NC(=O)/C=C/c2ccc(COC(Cn3ccnc3)c3ccc(Cl)cc3Cl)cc2)cc1` (configuration not stated), the minimum inhibitory concentration (MIC) amounted to 0.125 µg/mL (≈ 0.239 µM).
On to `CC(C)NC(=O)/C=C/c1ccc(COC(Cn2ccnc2)c2ccc(Cl)cc2Cl)cc1` (configuration not stated), for which the MIC was determined as 2 µg/mL (≈ 4.36 µM).

Another assay deals with Candida albicans. Briefly: Antifungal activity against fluconazole-resistant Candida albicans 904 assessed as inhibition of fungal growth by CLSI based microdilution method. It is filed as functional.
Conditions: not given
For the compound `O=C(/C=C/c1ccc(COC(Cn2ccnc2)c2ccc(Cl)cc2Cl)cc1)Nc1cccc(Cl)c1` (configuration not stated), the MIC is 2 µg/mL (≈ 3.8 µM).
Still for that read-out and setting: as for `CCNC(=O)/C=C/c1ccc(COC(Cn2ccnc2)c2ccc(Cl)cc2Cl)cc1` (configuration not stated), the figure is 16 µg/mL (≈ 36 µM); as for `COc1ccc(NC(=O)/C=C/c2ccc(COC(Cn3ccnc3)c3ccc(Cl)cc3Cl)cc2)cc1` (configuration not stated), 4 µg/mL (≈ 7.66 µM).
As to `CC(C)NC(=O)/C=C/c1ccc(COC(Cn2ccnc2)c2ccc(Cl)cc2Cl)cc1` (configuration not stated), the MIC is 8 µg/mL (≈ 17.5 µM).

The test system of another assay is Pichia kudriavzevii. Briefly: Antifungal activity against Candida krusei AS 2.1045 assessed as inhibition of fungal growth by CLSI protocol based microdilution method. It is filed as functional.
Conditions: not given
In the case of `O=C(/C=C/c1ccc(COC(Cn2ccnc2)c2ccc(Cl)cc2Cl)cc1)Nc1cccc(Cl)c1` (configuration not stated), the MIC was determined as 64 µg/mL (≈ 121 µM).
Still for that read-out and setting: for `CCNC(=O)/C=C/c1ccc(COC(Cn2ccnc2)c2ccc(Cl)cc2Cl)cc1` (configuration not stated) the value was 32 µg/mL (≈ 72 µM); for `COc1ccc(NC(=O)/C=C/c2ccc(COC(Cn3ccnc3)c3ccc(Cl)cc3Cl)cc2)cc1` (configuration not stated), 2 µg/mL (≈ 3.83 µM); for `CC(C)NC(=O)/C=C/c1ccc(COC(Cn2ccnc2)c2ccc(Cl)cc2Cl)cc1` (configuration not stated), 4 µg/mL (≈ 8.73 µM).

Another assay has as its system Candida albicans. Briefly: Antifungal activity against fluconazole-resistant Candida albicans CaR assessed as inhibition of fungal growth by CLSI based microdilution method. The class given is functional.
Conditions: not given
Regarding `O=C(/C=C/c1ccc(COC(Cn2ccnc2)c2ccc(Cl)cc2Cl)cc1)Nc1cccc(Cl)c1` (configuration not stated), the MIC stood at 128 µg/mL (≈ 243 µM).
Still for that read-out and setting: for `CCNC(=O)/C=C/c1ccc(COC(Cn2ccnc2)c2ccc(Cl)cc2Cl)cc1` (configuration not stated) the value was 128 µg/mL (≈ 288 µM).
As to `COc1ccc(NC(=O)/C=C/c2ccc(COC(Cn3ccnc3)c3ccc(Cl)cc3Cl)cc2)cc1` (configuration not stated), the MIC came to 4 µg/mL (≈ 7.66 µM).
For the compound `CC(C)NC(=O)/C=C/c1ccc(COC(Cn2ccnc2)c2ccc(Cl)cc2Cl)cc1` (configuration not stated), the MIC amounted to 16 µg/mL (≈ 34.9 µM).

The next assay has as its system Candida albicans. Briefly: Antifungal activity against fluconazole-resistant Candida albicans 632 assessed as inhibition of fungal growth by CLSI based microdilution method.
Conditions: not given
It is filed as functional.
As for `O=C(/C=C/c1ccc(COC(Cn2ccnc2)c2ccc(Cl)cc2Cl)cc1)Nc1cccc(Cl)c1` (configuration not stated), the minimal inhibitory concentration (MIC) was 2 µg/mL (≈ 3.8 µM).
Same read-out and setting: as for `CCNC(=O)/C=C/c1ccc(COC(Cn2ccnc2)c2ccc(Cl)cc2Cl)cc1` (configuration not stated), the figure is 2 µg/mL (≈ 4.5 µM); as for `COc1ccc(NC(=O)/C=C/c2ccc(COC(Cn3ccnc3)c3ccc(Cl)cc3Cl)cc2)cc1` (configuration not stated), 0.25 µg/mL (≈ 0.479 µM); as for `CC(C)NC(=O)/C=C/c1ccc(COC(Cn2ccnc2)c2ccc(Cl)cc2Cl)cc1` (configuration not stated), 1 µg/mL (≈ 2.18 µM).

The next assay deals with Candida albicans. Briefly: Antifungal activity against fluconazole-resistant Candida albicans 17 assessed as inhibition of fungal growth by CLSI based microdilution method. The class given is functional.
Conditions: not given
Take `O=C(/C=C/c1ccc(COC(Cn2ccnc2)c2ccc(Cl)cc2Cl)cc1)Nc1cccc(Cl)c1` (configuration not stated): the MIC turned out to be 128 µg/mL (≈ 243 µM).
Still for that read-out and setting: for `CCNC(=O)/C=C/c1ccc(COC(Cn2ccnc2)c2ccc(Cl)cc2Cl)cc1` (configuration not stated) the value was 128 µg/mL (≈ 288 µM); for `COc1ccc(NC(=O)/C=C/c2ccc(COC(Cn3ccnc3)c3ccc(Cl)cc3Cl)cc2)cc1` (configuration not stated), 2 µg/mL (≈ 3.83 µM).
For the compound `CC(C)NC(=O)/C=C/c1ccc(COC(Cn2ccnc2)c2ccc(Cl)cc2Cl)cc1` (configuration not stated), the minimum inhibitory concentration (MIC) turned out to be 16 µg/mL (≈ 34.9 µM).

Values taken from ChEMBL document CHEMBL5550210, “Discovery of Novel α,β-Unsaturated Amide Derivatives as Candidate Antifungals to Overcome Fungal Resistance” (J Med Chem, 2024).
